ChEMBL document CHEMBL4616582, “Green recipes to quinoline: A review” (Eur J Med Chem, 2019)
≈ marks a conversion by molar mass, not a printed value.

Tested on: HepG2
Experiment: Cytotoxicity against human HepG2 cells assessed as reduction in cell viability by MTT assay
Assay type: functional, cell-based
Details: not given

| SMILES | IC50 |
| --- | --- |
| CC(=O)c1ccc(Br)cc1 | 0.984 µM |
| CC(=O)c1ccccc1 [ACETOPHENONE] | 0.984 µM |
| O=c1c2c(Cl)cccc2n(-c2ccccc2)c2ss/c(=N\c3ccccc3)c12 | 0.984 µM |
| CC(=O)c1cc(Cl)ccc1Cl | 0.984 µM |
| CC(=O)c1ccc(Cl)c(Cl)c1 | 0.984 µM |
| O=c1c2ccc(F)cc2n(-c2ccccc2)c2ss/c(=N\c3ccccc3)c12 | 0.984 µM |
| S=C=Nc1ccccc1 [PHENYLISOTHIOCYANATE] | 0.984 µM |
| Cc1ccc(Br)c2c(=O)c3/c(=N/c4ccccc4)ssc3n(-c3ccccc3)c12 | 0.984 µM |
| O=c1c2cc(Cl)c(Cl)cc2n(-c2ccccc2)c2ss/c(=N\c3ccccc3)c12 | 0.984 µM |
| CC(=O)c1ccc(F)cc1 | 0.984 µM |
| O=c1c2ccc(Br)cc2n(-c2ccccc2)c2ss/c(=N\c3ccccc3)c12 | 0.984 µM |
| O=c1c2c(Cl)ccc(Cl)c2n(-c2ccccc2)c2ss/c(=N\c3ccccc3)c12 | 0.984 µM |
| CC(=O)c1ccc(Cl)cc1 | 0.984 µM |
| CC(=O)c1ccccc1Cl | 0.984 µM |
| O=c1c2ccc(Cl)cc2n(-c2ccccc2)c2ss/c(=N\c3ccccc3)c12 | 0.984 µM |
| CC(=O)c1cc(F)c(Cl)cc1Cl | 0.984 µM |

Tested on: B16-F10
Experiment: Cytotoxicity against mouse B16F10 cells assessed as reduction in cell viability
Assay type: functional, cell-based
Details: not given

| SMILES | IC50 |
| --- | --- |
| O=Cc1ccc(F)cc1 | 70.7 µM |
| O=Cc1cccc2ccccc12 | 70.7 µM |
| O=c1oc2ccccc2c2nc3c(ccc4cc[nH]c43)c(-c3ccccn3)c12 | 70.7 µM |
| O=Cc1ccc(Br)cc1 | 70.7 µM |
| O=Cc1ccc(Cl)cc1Cl | 70.7 µM |
| O=c1oc2ccccc2c2nc3c(ccc4cc[nH]c43)c(-c3cccc(Cl)c3Cl)c12 | 70.7 µM |
| O=Cc1ccc(C(F)(F)F)cc1 | 70.7 µM |
| O=Cc1cccc(Br)c1 | 70.7 µM |
| O=Cc1ccc(O)cc1 [4-HYDROXYBENZALDEHYDE] | 70.7 µM |
| Nc1cccc2cc[nH]c12 | 70.7 µM |
| O=c1oc2ccccc2c2nc3c(ccc4cc[nH]c43)c(-c3ccc(Br)cc3)c12 | 70.7 µM |
| Cc1ccc(-c2c3ccc4cc[nH]c4c3nc3c2c(=O)oc2ccccc23)cc1 | 70.7 µM |
| O=c1cc(O)c2cc(Cl)ccc2o1 | 70.7 µM |
| O=Cc1ccc([N+](=O)[O-])cc1 | 70.7 µM |
| COc1ccc(C=O)cc1 [ANISALDEHYDE] | 70.7 µM |
| O=c1oc2ccccc2c2nc3c(ccc4cc[nH]c43)c(-c3ccccc3)c12 | 70.7 µM |
| O=c1oc2ccccc2c2nc3c(ccc4cc[nH]c43)c(-c3ccc([N+](=O)[O-])cc3)c12 | 70.7 µM |
| O=c1oc2ccccc2c2nc3c(ccc4cc[nH]c43)c(-c3ccc(C(F)(F)F)cc3)c12 | 70.7 µM |
| O=c1oc2ccccc2c2nc3c(ccc4cc[nH]c43)c(-c3cccc4ccccc34)c12 | 70.7 µM |
| Cc1ccc(C=O)cc1 | 70.7 µM |

| SMILES | IC50 |
| --- | --- |
| O=Cc1ccccc1Br | 70.7 µM |
| O=c1cc(O)c2ccccc2o1 [4-HYDROXYCOUMARINS] | 70.7 µM |
| O=c1oc2ccccc2c2nc3c(ccc4cc[nH]c43)c(-c3cccnc3Cl)c12 | 70.7 µM |
| O=c1oc2ccccc2c2nc3c(ccc4cc[nH]c43)c(-c3ccc(F)cc3)c12 | 70.7 µM |
| O=c1oc2ccccc2c2nc3c(ccc4cc[nH]c43)c(-c3cccc(Br)c3)c12 | 70.7 µM |
| O=c1oc2ccccc2c2nc3c(ccc4cc[nH]c43)c(-c3ccccc3Br)c12 | 70.7 µM |
| O=Cc1cccnc1Cl [2-CHLORONICOTINALDEHYDE] | 70.7 µM |
| O=c1oc2ccccc2c2nc3c(ccc4cc[nH]c43)c(-c3c(Cl)cccc3Cl)c12 | 70.7 µM |
| O=c1cc(O)c2cc(Br)ccc2o1 | 70.7 µM |
| O=Cc1c(Cl)cccc1Cl | 70.7 µM |
| O=Cc1cccc(Cl)c1Cl | 70.7 µM |
| O=c1oc2ccccc2c2nc3c(ccc4cc[nH]c43)c(-c3ccc(Cl)cc3)c12 | 70.7 µM |
| O=c1cc(O)c2cc(F)ccc2o1 | 70.7 µM |
| O=Cc1ccc(Cl)cc1 | 70.7 µM |
| O=c1oc2ccccc2c2nc3c(ccc4cc[nH]c43)c(-c3ccc(Cl)cc3Cl)c12 | 70.7 µM |
| O=Cc1ccccn1 [2-PYRIDINECARBOXALDEHYDE] | 70.7 µM |
| O=c1oc2ccccc2c2nc3c(ccc4cc[nH]c43)c(-c3ccc(O)cc3)c12 | 70.7 µM |
| O=Cc1ccccc1 [BENZALDEHYDE] | 70.7 µM |
| COc1ccc(-c2c3ccc4cc[nH]c4c3nc3c2c(=O)oc2ccccc23)cc1 | 70.7 µM |

Tested on: Bacillus subtilis
Experiment: Antibacterial activity against Bacillus subtilis MTCC 121 after 24 hrs by agar well diffusion method
Assay type: functional
Details: MTCC 121, 24 h

| MIC | SMILES |
| --- | --- |
| 8 µg/mL (≈ 14.5 µM) | CC1(C)CC(=O)C2=C(C1)N(c1ccccc1)C(=O)C21C2=C(Nc3ccc(Br)cc31)c1ccccc1C2=O (stereo not drawn) |
| 8 µg/mL (≈ 15.8 µM) | CC1(C)CC(=O)C2=C(C1)N(c1ccc(Cl)cc1)C(=O)C21C2=C(Nc3ccccc31)c1ccccc1C2=O (stereo not drawn) |
| 8 µg/mL (≈ 14.5 µM) | COc1ccc(N2C(=O)C3(C4=C(Nc5ccc(Br)cc53)c3ccccc3C4=O)C3=C2CCCC3=O)cc1 (stereo not drawn) |
| 8 µg/mL (≈ 15.8 µM) | CC1(C)CC(=O)C2=C(C1)N(c1ccco1)C(=O)C21C2=C(Nc3ccc([N+](=O)[O-])cc31)c1ccccc1C2=O (stereo not drawn) |
| 6.25 µg/mL (≈ 18.9 µM) | O=C(O)c1cn(C2CC2)c2cc(N3CCNCC3)c(F)cc2c1=O [CIPROFLOXACIN] |
| 8 µg/mL (≈ 16.9 µM) | CC1(C)CC(=O)C2=C(C1)N(c1ccccc1)C(=O)C21C2=C(Nc3ccccc31)c1ccccc1C2=O (stereo not drawn) |
| 8 µg/mL (≈ 16.3 µM) | O=C1CCCC2=C1C1(C(=O)N2c2ccccc2)C2=C(Nc3ccc([N+](=O)[O-])cc31)c1ccccc1C2=O (stereo not drawn) |
| 8 µg/mL (≈ 14.5 µM) | CC1(C)CC(=O)C2=C(C1)N(c1ccc(Br)cc1)C(=O)C21C2=C(Nc3ccccc31)c1ccccc1C2=O (stereo not drawn) |
| 8 µg/mL (≈ 16.7 µM) | O=C1CCCC2=C1C1(C(=O)N2c2ccc(Cl)cc2)C2=C(Nc3ccccc31)c1ccccc1C2=O (stereo not drawn) |
| 8 µg/mL (≈ 14.8 µM) | CC1(C)CC(=O)C2=C(C1)N(c1ccco1)C(=O)C21C2=C(Nc3ccc(Br)cc31)c1ccccc1C2=O (stereo not drawn) |
| 8 µg/mL (≈ 16.4 µM) | Cc1ccc(N2C(=O)C3(C4=C(Nc5ccccc53)c3ccccc3C4=O)C3=C2CC(C)(C)CC3=O)cc1 (stereo not drawn) |
| 8 µg/mL (≈ 15.3 µM) | O=C1CCCC2=C1C1(C(=O)N2c2ccc(Cl)cc2)C2=C(Nc3ccc([N+](=O)[O-])cc31)c1ccccc1C2=O (stereo not drawn) |
| 8 µg/mL (≈ 15.5 µM) | CC1(C)CC(=O)C2=C(C1)N(c1ccccc1)C(=O)C21C2=C(Nc3ccc([N+](=O)[O-])cc31)c1ccccc1C2=O (stereo not drawn) |
| 8 µg/mL (≈ 15.1 µM) | CCCCN1C(=O)C2(C3=C(Nc4ccc(Br)cc42)c2ccccc2C3=O)C2=C1CC(C)(C)CC2=O (stereo not drawn) |
| 8 µg/mL (≈ 15.9 µM) | COc1ccc(N2C(=O)C3(C4=C(Nc5ccccc53)c3ccccc3C4=O)C3=C2CC(C)(C)CC3=O)cc1 (stereo not drawn) |
| 8 µg/mL (≈ 18 µM) | O=C1CCCC2=C1C1(C(=O)N2c2ccccc2)C2=C(Nc3ccccc31)c1ccccc1C2=O (stereo not drawn) |
| 8 µg/mL (≈ 14.1 µM) | O=C1CCCC2=C1C1(C(=O)N2c2ccc(Br)cc2)C2=C(Nc3ccc([N+](=O)[O-])cc31)c1ccccc1C2=O (stereo not drawn) |
| 8 µg/mL (≈ 15.1 µM) | O=C1CCCC2=C1C1(C(=O)N2C2CCCCC2)C2=C(Nc3ccc(Br)cc31)c1ccccc1C2=O (stereo not drawn) |
| 8 µg/mL (≈ 13.3 µM) | O=C1CCCC2=C1C1(C(=O)N2c2ccc(Br)cc2)C2=C(Nc3ccc(Br)cc31)c1ccccc1C2=O (stereo not drawn) |
| 8 µg/mL (≈ 15.9 µM) | Cc1ccc(N2C(=O)C3(C4=C(Nc5ccc([N+](=O)[O-])cc53)c3ccccc3C4=O)C3=C2CCCC3=O)cc1 (stereo not drawn) |
| 8 µg/mL (≈ 14.9 µM) | Cc1ccc(N2C(=O)C3(C4=C(Nc5ccc(Br)cc53)c3ccccc3C4=O)C3=C2CCCC3=O)cc1 (stereo not drawn) |
| 8 µg/mL (≈ 15.3 µM) | O=C1CCCC2=C1C1(C(=O)N2c2ccccc2)C2=C(Nc3ccc(Br)cc31)c1ccccc1C2=O (stereo not drawn) |
| 8 µg/mL (≈ 14.5 µM) | CC1(C)CC(=O)C2=C(C1)N(c1ccc(Cl)cc1)C(=O)C21C2=C(Nc3ccc([N+](=O)[O-])cc31)c1ccccc1C2=O (stereo not drawn) |
